Measurements from patent US20260166021A1, “POLYMORPHIC FORMS OF A SOLUBLE EPOXIDE HYDROLASE INHIBITOR AND FORMULATIONS THEREOF” (EicOsis, LLC, priority 2022, published 2026).

Experiments:
Type in all cases: physicochemical
[1] = Hygroscopic analyses: stability at 75% relative humidity and 40° C. (XRD); details: open vial, after 4 and 14 days
Procedure: To further evaluate physical stability, Form D was tested for stability in humid conditions. […] FIG. 84 summarizes XRD analyses used to monitor the polymorph over the 14-day experiment. In this figure, the top panel provides a representative XRD spectrum of Form D, the second from the top panel is an XRD spectrum of the starting material, the third from the top panel is an XRD spectrum of the starting material after 4 days of humidity exposure, and the bottom panel is an XRD spectrum of the starting material after 14 days of humidity exposure.

[2] = Excipient stability analyses (HPLC impurities)
Procedure: For the excipient stability analyses, approximately 10-20 mg Form D was incubated in PEG400, propylene glycol, D-a-Tocopherol polyethylene glycol 1000 succinate (Vitamin E TPGS), Gelucire® 44/14, hydrogenated castor oil, glyceryl caprylate/caprate(Capmul® MCM), ethoxylated solubilizers (Kolliphor® HS 15, Kolliphor® EL), nonionic surfactant (Labrasol), and diethylene glycol monoethyl ether (Transcutol® HP).

[3] = PEG-stability analyses: Form C/Form D mixture slurried in PEG300 with water; details: 1:1 mixture of Forms C and D slurried in PEG300; XRD
Procedure: Of particular interest was whether Form D would convert to a hydrate (e.g., Form C) in the presence of water. To investigate the critical water concentration for phase interconversion between Pattern C and D, a series experiments were designed (as summarized in TABLE 16). A 1:1 mixture of Forms C and D was prepared and slurried in PEG 300 with different levels of water concentrations. Phase transformations were monitored with XRD, and are summarized in FIG. 85, which (from top to bottom) provides XRD of Form C, Form D, the mixture following incubation in PEG300 containing 75% water, the mixture following incubation in PEG300 containing 50% water, the mixture following incubation in PEG300 containing 25% water, the mixture following incubation in PEG300 containing 10% water, and the mixture following incubation in PEG300 containing 5% water. […] Form D is the stable form in PEG300 with less than 50% water.

[4] = Thermal stress studies at 60° C. (XRD, HPLC); details: HPLC
Procedure: Briefly, 20 mg of solid Form A, B, C, D, E, F, G, and I were weighed into 7 mL glass vials. The vials were covered with tissue and stored in ovens set to 60° C. and ambient pressure. Following 1 and 7 days incubation, solid was collected for XRD analysis.
As shown in these figures, Forms B and C converted to Forms D and A, respectively, while the other forms remained unchanged.
The starting materials, intermediates (1 day of thermal stress), and products (7 days of thermal stress) were analyzed by H PLC. Representative chromatograms from the Form D thermal stress analyses are shown in FIGS. 81-83 (starting material, 1 day, and 7 day samples, respectively).

[5] = Chemical stability in pH media (HPLC impurities)
Procedure: For the pH stability analyses, approximately 2-3 mg Form D was incubated in 1.0 mL of aqueous pH 1.0 (0.1 M HCl), pH 6.8 (water adjusted using 0.1 M NaOH and 0.1 M HCl), and pH 10.0 solutions.

[6] = 50° C., Castor Oil, hydrogenated
[7] = Room Temperature, Capmul MCM, EP
[8] = Room Temperature, Capmul MCM, NF
[9] = Room Temperature, Castor Oil, hydrogenated*
[10] = Room Temperature, Gelucire 44/14
[11] = Room Temperature, Kolliphor HS-15
[12] = Room Temperature, Propylene glycol
[13] = Room Temperature, Vitamin E TPGS

SMILES: CC[C@H](C)C(=O)N1CCC(NC(=O)Nc2ccc(OC(F)(F)F)c(F)c2)CC1 [Form D, (S)-1-(3-fluoro-4-(trifluoromethoxy)phenyl)-3-(1-(2-methylbutanoyl)piperidin-4-yl)urea]
- polymorph stability in humid conditions [1]: unchanged
- Impurity, % (Day 1) ([2]; 50° C., Capmul MCM, EP): None
- Impurity, % (Day 3) ([2]; 50° C., Capmul MCM, EP): None
- Impurity, % (Day 1) ([2]; 50° C., Capmul MCM, NF): None
- Impurity, % (Day 3) ([2]; 50° C., Capmul MCM, NF): None
- Impurity, % (Day 1) [2, 6]: None
- Impurity, % (Day 3) [2, 6]: None
- Impurity, % (Day 1) ([2]; 50° C., Gelucire 44/14): None
- Impurity, % (Day 3) ([2]; 50° C., Gelucire 44/14): None
- Impurity, % (Day 1) ([2]; 50° C., Kolliphor EL): None
- Impurity, % (Day 3) ([2]; 50° C., Kolliphor EL): None
- Impurity, % (Day 1) ([2]; 50° C., Kolliphor HS-15): None
- Impurity, % (Day 3) ([2]; 50° C., Kolliphor HS-15): None
- Impurity, % (Day 1) ([2]; 50° C., Labrasol): None
- Impurity, % (Day 3) ([2]; 50° C., Labrasol): None
- Impurity, % (Day 1) ([2]; 50° C., PEG 400): None
- Impurity, % (Day 1) ([2]; 50° C., Propylene glycol): None
- Impurity, % (Day 3) ([2]; 50° C., Propylene glycol): None
- Impurity, % (Day 1) ([2]; 50° C., Transcutol): None
- Impurity, % (Day 3) ([2]; 50° C., Transcutol): None
- Impurity, % (Day 1) ([2]; 50° C., Vitamin E TPGS): None
- Impurity, % (Day 3) ([2]; 50° C., Vitamin E TPGS): None
- impurities after incubation in excipients ([2]; PEG400, propylene glycol, Vitamin E TPGS, Gelucire 44/14, hydrogenated castor oil, Capmul MCM, Kolliphor HS 15, Kolliphor EL, Labrasol, Transcutol HP, 4 or 7 days, room temperature or 50° C., HPLC): No impurities were observed
- Impurity, % (Day 1) [2, 7]: None
- Impurity, % (Day 3) [2, 7]: None
- Impurity, % (Day 1) [2, 8]: None
- Impurity, % (Day 3) [2, 8]: None
- Impurity, % (Day 1) [2, 9]: None
- Impurity, % (Day 3) [2, 9]: None
- Impurity, % (Day 1) [2, 10]: None
- Impurity, % (Day 3) [2, 10]: None
- Impurity, % (Day 1) ([2]; Room Temperature, Kolliphor EL): None
- Impurity, % (Day 3) ([2]; Room Temperature, Kolliphor EL): None
- Impurity, % (Day 1) [2, 11]: None
- Impurity, % (Day 3) [2, 11]: None
- Impurity, % (Day 1) ([2]; Room Temperature, Labrasol): None
- Impurity, % (Day 3) ([2]; Room Temperature, Labrasol): None
- Impurity, % (Day 1) ([2]; Room Temperature, PEG 400): None
- Impurity, % (Day 1) [2, 12]: None
- Impurity, % (Day 3) [2, 12]: None
- Impurity, % (Day 1) ([2]; Room Temperature, Transcutol): None
- Impurity, % (Day 3) ([2]; Room Temperature, Transcutol): None
- Impurity, % (Day 1) [2, 13]: None
- Impurity, % (Day 3) [2, 13]: None
- critical water concentration for phase interconversion between Pattern C and D [3]: 50%
- Day 1 % AUC ([4]; 60° C.): 100%
- Day 7 % AUC ([4]; 60° C.): 100%
- Initial % AUC ([4]; before thermal stress): 100%
- Impurity, % (Day 4) ([5]; 50° C., pH 1.0): None Detected
- Impurity, % (Day 7) ([5]; 50° C., pH 1.0): None Detected
- Impurity, % (Day 4) ([5]; 50° C., pH 6.8): None Detected
- Impurity, % (Day 7) ([5]; 50° C., pH 6.8): None Detected
- Impurity, % (Day 4) ([5]; 50° C., pH 10.0): None Detected
- Impurity, % (Day 7) ([5]; 50° C., pH 10.0): None Detected
- Impurity, % (Day 4) ([5]; Room Temperature, pH 1.0): None Detected
- Impurity, % (Day 7) ([5]; Room Temperature, pH 1.0): None Detected
- Impurity, % (Day 4) ([5]; Room Temperature, pH 6.8): None Detected
- Impurity, % (Day 7) ([5]; Room Temperature, pH 6.8): None Detected
- Impurity, % (Day 4) ([5]; Room Temperature, pH 10.0): None Detected
- Impurity, % (Day 7) ([5]; Room Temperature, pH 10.0): None Detected
- impurities after incubation in pH media ([5]; aqueous pH 1.0, pH 6.8, pH 10.0, 4 or 7 days, room temperature or 50° C.): No impurities were detectable
